{
  "source": "patent US20050025723A1",
  "about": "“Sunburn treatment and sunburn prevention method” (priority 2000, published 2005)",
  "origin": "cited, not measured here",
  "key": {"inflammation": {"test_system": "inflammation", "conditions": "in vitro and in vivo; compared with parent molecule or the L-form tripeptide; literature statements"}, "fever": {"test_system": "fever", "conditions": "compared with parent peptide α-MSH or α-MSH(11-13); literature statements"}, "[1]": {"test_system": "melanocytes and melanoma cells"}, "learning and memory": {"test_system": "learning and memory", "conditions": "in vivo"}},
  "note": "Entries after “also recorded” stand apart in the source; their conditions may differ.",
  "data": [
    {"substance": "Ac-[D-K11]-α-MSH 11-13-NH2", "values": [
      {"measurement": "anti-inflammatory activity / potency", "setting": "inflammation", "result": "same general potency as the L-form of the tripeptide"}
    ]},
    {"substance": "[Nle^4,D-Phe^7]α-MSH", "values": [
      {"measurement": "antipyretic potency / activity (reducing fever)", "setting": "fever", "result": "approximately ten times more potent than the parent peptide"},
      {"measurement": "biological activity on melanocytes and melanoma cells", "setting": "[1]", "result": "marked biological activity"}
    ]},
    {"substance": "lysine-proline-valine [KPV]", "values": [
      {"measurement": "antipyretic potency / activity (reducing fever)", "setting": "fever", "result": "parallel those of the parent molecule"},
      {"measurement": "anti-inflammatory activity / potency", "setting": "inflammation", "result": "parallel those of the parent molecule; also recorded: effective over a very broad range of concentrations, including picomolar concentrations"}
    ]},
    {"substance": "MEHFRWG [α-MSH sequence (4-10)]", "values": [
      {"measurement": "antipyretic potency / activity (reducing fever)", "setting": "fever", "result": "little"},
      {"measurement": "anti-inflammatory activity / potency", "setting": "inflammation", "result": "little"},
      {"measurement": "learning and memory behavioral effects", "setting": "learning and memory", "result": "has learning and memory behavioral effects"}
    ]},
    {"substance": "8-13 sequence: α-MSH 8-13 sequence (RWGKPV; Designed polypeptide with anti-inflammatory, anti-bacterial, anti-fungal and antipyretic properties.)", "values": [
      {"measurement": "antipyretic potency / activity (reducing fever)", "setting": "fever", "result": "greater than that of the 11-13 sequence"}
    ]},
    {"substance": "10-13 sequence: α-MSH 10-13 sequence formed by addition of glycine to α-MSH(11-13) (GKPV; Designed polypeptide with anti-inflammatory, anti-bacterial, anti-fungal and antipyretic properties.)", "values": [
      {"measurement": "antipyretic potency / activity (reducing fever)", "setting": "fever", "result": "slightly decreased potency"}
    ]},
    {"substance": "9-13 sequence: α-MSH 9-13 sequence (WGKPV; C-terminal sequences of alpha-MSH)", "values": [
      {"measurement": "antipyretic potency / activity (reducing fever)", "setting": "fever", "result": "almost devoid of activity"}
    ]}
  ]
}
